Earlier results, collected in patent publication US9517201B2, “Nanocarrier and nanogel compositions” (RUTGERS, THE STATE UNIVERSITY OF NEW JERSEY, priority 2008, dated 2016).
Where a name gives a salt, the structure may show the parent alone.

COc1cccc2c1C(=O)c1c(O)c3c(c(O)c1C2=O)C[C@@](O)(C(=O)CO)C[C@@H]3O[C@H]1C[C@H](N)[C@H](O)[C@H](C)O1 [Doxorubicin Hydrochloride, Doxorubicin hydrochloride]
solubility of Doxorubicin Hydrochloride in water: ~10000 µg/mL
